{"source": "patent US20060240402A1", "about": "“Marine invertebrate gametes and embryos as an assay system for therapeutic screening” (priority 2005, published 2006)", "key": {"[1]": {"test_system": "human tumor cell lines", "details": "several human tumor cell lines; cited from earlier work"}, "[2]": {"test_system": "Spisula oocytes", "test": "Whole egg germinal vesicle breakdown (GVBD) and spindle assembly assay", "type": "cell-based, Spisula solidissima", "description": "Oocytes are prepared as generally described in Allen R D. (1953) Biol Bull. 105:213-239; Palazzo, R. E., Vaisberg, E., Cole, R. W. and Rieder, C. L. (1992) Science. 256: 219-221; Vogel, J. M., Stearns, T., Rieder, C. L. and Palazzo, R. E. (1997) J. Cell Biol. 137: 193-202; and Schnackenberg, B. J. and Palazzo, R. E. (1999) Biology of the Cell. 91: 429-438.\n(§1) Briefly, adult Spisula or Mulinia are collected from the Atlantic Ocean, often by the Marine Resources Department of the Marine Biological Laboratory (Woods Hole, Mass.) or from commercial fisherman and maintained in flow-through sea water tanks at ˜13° C. containing artificial sea water (ASW). Oocytes are then dissected from ripe ovaries, passed through cheese cloth, and washed in sea water by three cycles of suspension/sedimentation. Oocytes are then activated by treatment with KCl for 4 min, and lysates are prepared as previously described by Palazzo et al. (Palazzo, R. E., J. B. Brawley, and L. I. Rebhun (1988). Zool. Sci. (Tokyo). 5: 603-611).\n(§2) Aster formation in oocytes, embryos, and lysates is assessed with polarized light microscopy by adding 3% hexylene glycol to small aliquots and warming to 24° C. (Palazzo, R. E., J. B. Brawley, and L. I. Rebhun (1988). Zool. Sci. (Tokyo). 5: 603-611). The remaining lysate is aliquoted, snap frozen, and stored at −80° C. Frozen lysates retain the ability to assemble asters after years of storage.\nIn one embodiment of the invention, oocyte activation to induce GVBD, aster formation, spindle assembly, and cleavage can be induced by 5-hydroxy triptamine (5-HT, serotonin), fertilization, or depolarization of the cell plasma membrane by treatment with KCl when cells are incubated in sea water. This requires the entry of calcium into the cell after treatment with these agents. Thus, the GVBD, or events subsequent to GVBD, can be used as indicators for hormone-receptor interactions (serotonin), effect of calcium channel blockers (resulting in a block of GVBD and subsequent events after treatment with KCL, 5HT or sperm), or agents that block fertilization generally. Therefore the present invention can be used not only to screen for antimitotic agents but also putative neuromodulators (serotonin inhibitors and the like), cardiomodulators, vasoactive agents (calcium channel blockers) and anti-fertility agents.\nUsing the whole egg assay described above, Spisula oocytes were treated with 0.25 μM HMN-176 or 0.001% DMSO and activated to undergo germinal vesicle (nucleus) breakdown (GVBD), and aster and spindle formation."}, "[3]": {"test_system": "clam tubulin", "test": "Tubulin turbidity assay, clam tubulin", "type": "biochemical, Spisula solidissima", "details": "0.025 uM, 0.25 uM and 2.5 uM; 30° C., 0.7 mg/mL of tubulin", "description": "Three-cycled tubulin can also be prepared from Spisula oocyte lysates using a modification of the procedure described in Suprenant, K. A. (1989) Exp. Cell Res. 184: 167-180. Lysates are thawed and diluted with 0.8 vol of dilution buffer (100 mM potassium-Pipes, pH 7.2, 4 mM EGTA, 1 mM MgSO4, 1 mM DTT) containing 1 mM GTP, […] leupeptin, and 0.2 mM phenylmethylsulfonyl fluoride. Diluted lysate is then gently resuspended on ice and centrifuged (39,000 g/2° C./30 min) using a rotor (model JA20; Beckman Instruments Fullerton, Calif.) to clarify. Supernatants are collected and three-cycled tubulin prepared as previously described (Suprenant, K. A. (1989) Exp. Cell Res. 184: 167-180).\n(§3) The tubulin polymerization assay used herein is performed according to the teachings of Vogel, J. M., Steams, T., Rieder, C. L. and Palazzo, R. E. (1997) J. Cell Biol. 137: 193-202 and Suprenant K A, Marsh J C. (1987) J Cell Sci. 87:71-84, each of which is incorported herein by reference in its entirety.\n(§4) Sea urchin and clam tubulin turbidity assays were performed at 30° C. and 0.7 mg/mL of tubulin. Doses of 0.025 uM, 0.25 uM and 2.5 uM of HMN-176 were compared to DMSO treatment, all of which were compared to untreated control."}, "[4]": {"test_system": "centrosomes in Spisula lysates", "test": "Lysate aster formation assay", "type": "biochemical, Spisula solidissima", "details": "0.025 uM, 0.25 uM or 2.5 uM", "description": "as §1, §2\nUsing the lysate aster formation assay described above, Spisula lysates were warmed to room temperature with lysates containing varying amounts of HMN-176 (0.025 uM, 0.25 uM or 2.5 uM) or DMSO (0.0001%, 0.001%, or 0.01%) as control. […]"}, "[5]": {"test_system": "Isolated centrosomes reconstituted with sea urchin tubulin", "test": "Isolated centrosome assay (aster formation in defined media)", "type": "biochemical, Spisula solidissima", "details": "0.25 uM, 0.75 mg/mL sea urchin tubulin, time course of 25 minutes", "source_text": "Centrosomes are isolated and prepared according to the methods of Vogel et al. (Vogel, J. M., Stearns, T., Rieder, C. L. and Palazzo, R. E. (1997) J. Cell Biol. 137: 193-202). Briefly, centrosomes are isolated from lysates by sucrose density-gradient centrifugation using a modification of the procedures known in the art for isolation of mammalian centrosomes. As such, lysates are thawed on ice, and aliquots are removed and tested for aster formation using hexylene glycol and polarized light microscopy as previously described. For each preparative gradient, 2-3 ml of crude lysate (˜9-18×10^6 centrosomes) are diluted with 0.60 vol of aster buffer (Aster Buffer: 20 mM sodium-Pipes, pH 7.2, 100 mM NaCl, 5.0 mM MgSO4), resuspended, and centrifuged (5,500 g/4° C./10 min) using a rotor (model JS 13.1; Beckman Instruments). […] Fractions (1.0 ml) are collected at 4° C. by bottom puncture of centrifuge tubes, and sucrose density is determined with the use of a hand-held refractometer.\nFractions are tested for centrosome content based on their ability to organize microtubules in the form of radial astral arrays when reconstituted with tubulin media. Thus, 10 μl aliquots from each fraction are diluted into 40 μl of tubulin media (0.3-0.7 mg/ml three-cycled sea urchin tubulin in RAB buffer containing 2 mM GTP) and incubated for 10 min at ambient temperature, and asters are counted using a hemacytometer viewed with a polarized light microscope. […]\nCentrosome assembly and function is crucial for the coordinated polymerization of microtubules that leads to spindle assembly and chromosome segregation during mitosis. […] The isolated centrosome assay is used to (1) induce the synchronous assembly of centrosomes in hundreds of grams of live Spisula oocytes or large quantities of oocyte lysates and is performed according to the methods disclosed by Palazzo, R. E., Vaisberg, E., Cole, R. W. and Rieder, C. […]"}, "[6]": {"test_system": "sea urchin tubulin", "test": "Tubulin polymerization (turbidity) assay, sea urchin tubulin", "type": "biochemical, Strongylocentrotus purpuratus", "details": "0.025 uM, 0.25 uM and 2.5 uM", "description": "Sea urchin (Strongylocentrotus purpuratus) microtubules are prepared by three cycles of polymerization/depolymerization as previously described (Suprenant, K. A., and J. C. Marsh (1987) J. Cell Sci. 87: 71-84). Aliquots of ˜0.5-2.0 mg/ml protein are stored in 100 mM potassium-Pipes, pH 6.9, 1 mM EGTA, 5 mM MgSO4, 2 mM GTP (reassembly buffer) at −80° C. Three-cycled tubulin is diluted with reassembly buffer to 0.7 mg/ml for all functional assays unless otherwise stated.\nas §3\nThe effect of HMN-176 on sea urchin tubulin (0.75 mg/mL of S. purpuratus tubulin at 26° C.) polymerization in defined media was examined according to the methods described above. Sea urchin tubulin was isolated from Strongylocentrotus purpuratus oocytes by three cycles of microtubule polymerization and depolymerization. After the third cycle, microtubules were depolymerized, centrifuged to clarify, and the resulting supernatant adjusted to a concentration of 0.75 mg/ml protein. Samples were aliquoted and stored at −80° C.\nThe polymerization assay was used to test the effects of varying concentrations of HMN-176 (0.025 uM, 0.25 uM and 2.5 uM) along with varying amounts of DMSO for control (0.0001%, 0.001% and […]), respectively. Polymerization of untreated tubulin was also measured.\nas §4"}, "[7]": {"test_system": "CFPAC cells", "test": "Mammalian spindle phenotypes and time in mitosis in CFPAC cells", "type": "cell-based, human", "description": "To determine the effect of HMN-176 on mammalian cell lines, the transformed human cell line, CFPAC, was used. CFPAC cells were derived from a ductal adenocarcinoma (liver metastasis) from a patient with cystic fibrosis (ATCC #CRL-1918). CFPAC cellswere treated for 2 hours with 0.5 uM DMSO or 0.5 uM HMN-176 (n=79). Cells were studied for progression through mitosis and cell cleavage using video microscopy, or prepared for immunofluorescence analysis with antibodies to visualize beta tubulin or treated with Hoechst 33342 (Sigma Aldrich, St. Louis, Mo. to visualize DNA and chromosomes."}, "[8]": {"test_system": "mouse xenograft models", "details": "cited from earlier work"}, "[9]": {"details": "marine invertebrate gamete system, concentration not given"}, "[10]": {"details": "0.75 mg/mL S. purpuratus tubulin at 26° C."}, "[11]": {"details": "0.5 uM treatment for 2 hours, n = 79"}}, "data": [{"smiles": "COc1cc2c(c(OC)c1OC)-c1ccc(OC)c(=O)cc1[C@@H](NC(C)=O)CC2", "note": "[Colchicine]", "values": [{"measurement": "Cytotoxicity", "setting": "[1]", "value": "cytotoxic"}, {"measurement": "Effect on GVBD", "setting": "[2]; [9]", "value": "does not affect GVBD"}, {"measurement": "Effect on spindle assembly", "setting": "[2]; [9]", "value": "inhibits spindle assembly"}]}, {"smiles": "COc1ccc(S(=O)(=O)Nc2ccccc2/C=C/c2cc[n+]([O-])cc2)cc1", "note": "[HMN-176, (E)-4-{[2-N-[4-methoxybenzenesulfonyl]amino]stillbazole}1-oxide]", "values": [{"measurement": "Effect on germinal vesicle breakdown (GVBD)", "setting": "[2]; 0.25 μM, activated Spisula oocytes, observed at 9-26 minutes", "value": "not affecting GVBD"}, {"measurement": "Effect on spindle assembly in oocytes", "setting": "[2]; 0.25 μM, activated Spisula oocytes, observed at 15 and 26 minutes", "value": "inhibit spindle assembly"}, {"measurement": "Effect on clam tubulin turbidity", "setting": "[3]", "value": "Very little to no effect"}, {"measurement": "Status of centrosomes (immunofluorescence alpha-/gamma-tubulin)", "setting": "[4]; lysates", "value": "centrosomes remained intact in all samples"}, {"measurement": "Effect on aster formation in lysates", "setting": "[4]; lysates warmed to room temperature", "value": "blocked aster formation in the lysate aster formation assay in a dose dependent manner"}, {"measurement": "Aster formation by isolated centrosomes in defined media", "setting": "[5]", "value": "no asters were formed"}, {"measurement": "Background microtubule polymerization (not centrosome-associated)", "setting": "[5]", "value": "microtubule polymerization was observed in the background"}, {"measurement": "Status of centrosomes (gamma-tubulin staining)", "setting": "[5]", "value": "Centrosomes remained intact in all samples"}, {"measurement": "Effect on polymerization of tubulin", "setting": "[6]; [10]", "value": "only minor effect on the polymerization of tubulin"}, {"measurement": "Effect on rate of microtubule polymerization", "setting": "[6]; [10]", "value": "may slightly lower the rate of microtubule polymerization"}, {"measurement": "Effect on ultimate plateau of tubulin polymerization (turbidity)", "setting": "[6]; 0.75 mg/mL S. purpuratus tubulin at 26° C., by 25 minutes", "value": "does not affect the ultimate plateau"}, {"measurement": "Effect on sea urchin tubulin turbidity", "setting": "[6]; 30° C., 0.7 mg/mL of tubulin", "value": "Very little to no effect"}, {"measurement": "Spindle types observed", "setting": "[7]; 0.5 uM for 2 hours", "value": "multipolar spindles with disorganized chromosomes"}, {"measurement": "Spindle type: Bipolar, number of cells", "setting": "[7]; [11]", "value": 13}, {"measurement": "Spindle type: Bipolar, percent of cells", "setting": "[7]; [11]", "value": 16, "unit": "%"}, {"measurement": "Spindle type: Monopolar, number of cells", "setting": "[7]; [11]", "value": "Monopolar 0 (0%)"}, {"measurement": "Spindle type: Monopolar, percent of cells", "setting": "[7]; [11]", "value": "Monopolar 0 (0%)"}, {"measurement": "Spindle type: Multipolar, number of cells", "setting": "[7]; [11]", "value": 66}, {"measurement": "Spindle type: Multipolar, percent of cells", "setting": "[7]; [11]", "value": 84, "unit": "%"}, {"measurement": "Time that CFPAC cells were in mitosis", "setting": "[7]; 0.5 uM, video microscopy", "value": "147 ± 55", "unit": "min"}]}, {"smiles": "COc1ccc(S(=O)(=O)N(C(C)=O)c2ccccc2/C=C/c2cc[n+]([O-])cc2)cc1", "note": "[HMN-214, (E)-4-{2-[2-(N-acetyl-N-[4-methoxybenzenesulfonyl]amino]stillbazole]}1-oxide]", "values": [{"measurement": "Antitumor activity", "setting": "[8]", "value": "potent antitumor activity"}]}]}
